In this experiment the target is FGFR3 enzyme (Homo sapiens (Human), UniProt P22607). Briefly: FGFR Enzymatic Assay (peptide phosphorylation, FRET), FGFR3. It is filed as biochemical. Conditions: IC50 ratio showing FGFR3 selectivity; pre-incubated for 4 hours. As for the experimental part: The inhibitor potency of the exemplified compounds was measured in an enzyme assay that measures peptide phosphorylation using FRET measurements to detect product formation. Inhibitors were serially diluted in DMSO and a volume of 0.5 μL was transferred to the wells of a 384-well plate.
FGFR3 enzyme, sequence (P22607 23-806): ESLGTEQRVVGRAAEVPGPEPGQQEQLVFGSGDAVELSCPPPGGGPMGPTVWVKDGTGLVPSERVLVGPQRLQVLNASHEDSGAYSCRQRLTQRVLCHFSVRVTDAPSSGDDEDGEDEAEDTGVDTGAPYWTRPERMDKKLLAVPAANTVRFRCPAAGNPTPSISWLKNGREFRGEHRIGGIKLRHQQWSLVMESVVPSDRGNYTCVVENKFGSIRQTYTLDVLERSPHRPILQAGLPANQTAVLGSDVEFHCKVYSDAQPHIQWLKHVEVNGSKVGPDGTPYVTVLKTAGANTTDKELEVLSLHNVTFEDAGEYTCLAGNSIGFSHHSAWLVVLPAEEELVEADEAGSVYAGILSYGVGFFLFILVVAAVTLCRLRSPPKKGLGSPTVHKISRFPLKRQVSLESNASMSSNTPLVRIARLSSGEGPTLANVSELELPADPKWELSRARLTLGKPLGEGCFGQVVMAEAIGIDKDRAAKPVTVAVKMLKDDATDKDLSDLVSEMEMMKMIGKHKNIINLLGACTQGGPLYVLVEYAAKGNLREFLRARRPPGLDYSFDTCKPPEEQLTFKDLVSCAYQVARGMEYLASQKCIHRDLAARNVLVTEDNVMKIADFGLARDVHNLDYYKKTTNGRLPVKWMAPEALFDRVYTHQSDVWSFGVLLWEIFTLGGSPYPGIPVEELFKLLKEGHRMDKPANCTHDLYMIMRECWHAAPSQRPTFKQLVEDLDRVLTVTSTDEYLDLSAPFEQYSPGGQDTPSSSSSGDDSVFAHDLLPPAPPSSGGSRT
GraphPad prism3 was used to analyze the data.
Take `CCc1nnc(CN2C(=O)N(c3c(F)c(OC)cc(OC)c3F)Cc3cnc(-c4cn(C)nc4C)cc32)o1` [Example 67, 3-(2,6-difluoro-3,5-dimethoxyphenyl)-7-(1,3-dimethyl-1H-pyrazol-4-yl)-1-((5-ethyl-1,3,4-oxadiazol-2-yl)methyl)-3,4-dihydropyrido[4,3-d]pyrimidin-2(1H)-one]: the FGFR1/FGFR3 was >5 and the FGFR4/FGFR3 is recorded as >10.

Consider `COc1cc(OC)c(F)c(N2Cc3cnc(-c4cn(C)nc4C)cc3N(Cc3ccnc(C)c3)C2=O)c1F` [Example 68, 3-(2,6-difluoro-3,5-dimethoxyphenyl)-7-(1,3-dimethyl-1H-pyrazol-4-yl)-1-((2-methylpyridin-4-yl)methyl)-3,4-dihydropyrido[4,3-d]pyrimidin-2(1H)-one], for which the FGFR1/FGFR3 is recorded as >5 and the FGFR4/FGFR3 is on record as >5.

`COc1cc(OC)c(F)c(N2Cc3cnc(-c4cn(C)nc4C)cc3N(Cc3ccncc3)C2=O)c1F` [Example 69, 3-(2,6-difluoro-3,5-dimethoxyphenyl)-7-(1,3-dimethyl-1H-pyrazol-4-yl)-1-(pyridin-4-ylmethyl)-3,4-dihydropyrido[4,3-d]pyrimidin-2(1H)-one]: the FGFR1/FGFR3 is given as >5 and the FGFR4/FGFR3 is >5.

`COc1cc(OC)c(F)c(N2Cc3cnc(-c4cn(C)nc4C)cc3N(c3cnccn3)C2=O)c1F` [Example 70, 3-(2,6-difluoro-3,5-dimethoxyphenyl)-7-(1,3-dimethyl-1H-pyrazol-4-yl)-1-(pyrazin-2-yl)-3,4-dihydropyrido[4,3-d]pyrimidin-2(1H)-one]: the FGFR1/FGFR3 was >5 and the FGFR4/FGFR3 is recorded as >5.

With `COc1cc(OC)c(F)c(N2Cc3cnc(-c4cn(C)nc4C)cc3N(C3CCN(S(C)(=O)=O)CC3)C2=O)c1F` [Example 71, 3-(2,6-difluoro-3,5-dimethoxyphenyl)-7-(1,3-dimethyl-1H-pyrazol-4-yl)-1-(1-(methylsulfonyl)piperidin-4-yl)-3,4-dihydropyrido[4,3-d]pyrimidin-2(1H)-one], the FGFR1/FGFR3 was >5 and the FGFR4/FGFR3 is recorded as >3.

In the case of `COc1cc(OC)c(F)c(N2Cc3cnc(-c4cn(C)nc4C)cc3N(Cc3cnn(C)c3)C2=O)c1F` [Example 72, 3-(2,6-difluoro-3,5-dimethoxyphenyl)-7-(1,3-dimethyl-1H-pyrazol-4-yl)-1-((1-methyl-1H-pyrazol-4-yl)methyl)-3,4-dihydropyrido[4,3-d]pyrimidin-2(1H)-one], the FGFR1/FGFR3 was >5 and the FGFR4/FGFR3 is on record as >10.

With `COc1cc(OC)c(F)c(N2Cc3cnc(-c4cn(C)nc4C)cc3N(Cc3ccc(F)c(F)c3)C2=O)c1F` [Example 73, 3-(2,6-difluoro-3,5-dimethoxyphenyl)-1-(3,4-difluorobenzyl)-7-(1,3-dimethyl-1H-pyrazol-4-yl)-3,4-dihydropyrido[4,3-d]pyrimidin-2(1H)-one], the FGFR1/FGFR3 is given as >5 and the FGFR4/FGFR3 is >10.

Take `COc1cc(OC)c(F)c(N2Cc3cnc(-c4cn(C)nc4C)cc3N(Cc3ccc(C#N)nc3)C2=O)c1F` [Example 74, 5-((3-(2,6-difluoro-3,5-dimethoxyphenyl)-7-(1,3-dimethyl-1H-pyrazol-4-yl)-2-oxo-3,4-dihydropyrido[4,3-d]pyrimidin-1(2H)-yl)methyl)picolinonitrile]: the FGFR1/FGFR3 is recorded as >5 and the FGFR4/FGFR3 was >5.

For the compound `COc1cc(OC)c(F)c(N2Cc3cnc(-c4cn(C)nc4C)cc3N(c3ccc4nc(C)oc4c3)C2=O)c1F` [Example 75, 3-(2,6-difluoro-3,5-dimethoxyphenyl)-7-(1,3-dimethyl-1H-pyrazol-4-yl)-1-(2-methylbenzo[d]oxazol-6-yl)-3,4-dihydropyrido[4,3-d]pyrimidin-2(1H)-one], the FGFR1/FGFR3 is reported as >5 and the FGFR4/FGFR3 was >3.

Consider `COc1cc(OC)c(F)c(N2Cc3cnc(-c4cn(C)nc4C)cc3N(c3ccc(-n4cccn4)cc3)C2=O)c1F` [Example 77, 1-(4-(1H-pyrazol-1-yl)phenyl)-3-(2,6-difluoro-3,5-dimethoxyphenyl)-7-(1,3-dimethyl-1H-pyrazol-4-yl)-3,4-dihydropyrido[4,3-d]pyrimidin-2(1H)-one], for which the FGFR1/FGFR3 was >5 and the FGFR4/FGFR3 is >10.

In the case of `COc1cc(OC)c(F)c(N2Cc3cnc(-c4cn(C)nc4C)cc3N(c3cc(F)cc(C#N)c3)C2=O)c1F` [Example 78, 3-(3-(2,6-difluoro-3,5-dimethoxyphenyl)-7-(1,3-dimethyl-1H-pyrazol-4-yl)-2-oxo-3,4-dihydropyrido[4,3-d]pyrimidin-1(2H)-yl)-5-fluorobenzonitrile], the FGFR1/FGFR3 is on record as >5 and the FGFR4/FGFR3 was >3.

As to `COc1cc(OC)c(F)c(N2Cc3cnc(-c4cn(C)nc4C)cc3N(c3ccc(C#N)cn3)C2=O)c1F` [Example 79, 6-(3-(2,6-difluoro-3,5-dimethoxyphenyl)-7-(1,3-dimethyl-1H-pyrazol-4-yl)-2-oxo-3,4-dihydropyrido[4,3-d]pyrimidin-1(2H)-yl)nicotinonitrile], the FGFR1/FGFR3 is >5 and the FGFR4/FGFR3 is >3.

Consider `COc1cc(N2C(=O)N(c3c(F)c(OC)cc(OC)c3F)Cc3cnc(-c4cn(C)nc4C)cc32)ccc1C#N` [Example 81, 4-(3-(2,6-difluoro-3,5-dimethoxyphenyl)-7-(1,3-dimethyl-1H-pyrazol-4-yl)-2-oxo-3,4-dihydropyrido[4,3-d]pyrimidin-1(2H)-yl)-2-methoxybenzonitrile], for which the FGFR1/FGFR3 is listed as >5 and the FGFR4/FGFR3 was >10.

Turning to `COc1cc(OC)c(F)c(N2Cc3cnc(-c4cn(C)nc4C)cc3N(C3CC3)C2=O)c1F` [Example 83, 1-cyclopropyl-3-(2,6-difluoro-3,5-dimethoxyphenyl)-7-(1,3-dimethyl-1H-pyrazol-4-yl)-3,4-dihydropyrido[4,3-d]pyrimidin-2(1H)-one], the FGFR1/FGFR3 was >5 and the FGFR4/FGFR3 is recorded as >5.

Take `COc1cc(OC)c(F)c(N2Cc3cnc(-c4cn(C)nc4C)cc3N(Cc3cncnc3)C2=O)c1F` [Example 84, 3-(2,6-difluoro-3,5-dimethoxyphenyl)-7-(1,3-dimethyl-1H-pyrazol-4-yl)-1-(pyrimidin-5-ylmethyl)-3,4-dihydropyrido[4,3-d]pyrimidin-2(1H)-one]: the FGFR1/FGFR3 is on record as >5 and the FGFR4/FGFR3 is given as >5.

As for `COc1cc(OC)c(F)c(N2Cc3cnc(-c4cn(C)nc4C)cc3N(Cc3cnccn3)C2=O)c1F` [Example 85, 3-(2,6-difluoro-3,5-dimethoxyphenyl)-7-(1,3-dimethyl-1H-pyrazol-4-yl)-1-(pyrazin-2-ylmethyl)-3,4-dihydropyrido[4,3-d]pyrimidin-2(1H)-one], the FGFR1/FGFR3 is reported as >5 and the FGFR4/FGFR3 is >10.

As to `COc1cc(OC)c(F)c(N2Cc3cnc(-c4cn(C)nc4C)cc3N(c3cccnc3)C2=O)c1F` [Example 86, 3-(2,6-difluoro-3,5-dimethoxyphenyl)-7-(1,3-dimethyl-1H-pyrazol-4-yl)-1-(pyridin-3-yl)-3,4-dihydropyrido[4,3-d]pyrimidin-2(1H)-one], the FGFR1/FGFR3 is >5 and the FGFR4/FGFR3 is >10.

`COc1cc(OC)c(F)c(N2Cc3cnc(-c4cn(C)nc4C)cc3N(c3cncc(C)n3)C2=O)c1F` [Example 87, 3-(2,6-difluoro-3,5-dimethoxyphenyl)-7-(1,3-dimethyl-1H-pyrazol-4-yl)-1-(6-methylpyrazin-2-yl)-3,4-dihydropyrido[4,3-d]pyrimidin-2(1H)-one]: the FGFR1/FGFR3 is >5 and the FGFR4/FGFR3 was >10.

On to `COc1cc(OC)c(F)c(N2Cc3cnc(-c4cn(C)nc4C)cc3N(Cc3cccnn3)C2=O)c1F` [Example 88, 3-(2,6-difluoro-3,5-dimethoxyphenyl)-7-(1,3-dimethyl-1H-pyrazol-4-yl)-1-(pyridazin-3-ylmethyl)-3,4-dihydropyrido[4,3-d]pyrimidin-2(1H)-one], for which the FGFR1/FGFR3 was >5 and the FGFR4/FGFR3 is recorded as >10.

As for `COc1cc(OC)c(F)c(N2Cc3cnc(-c4cn(C)nc4C)cc3N(c3cccc(-c4cnnn4C)c3)C2=O)c1F` [Example 89, 3-(2,6-difluoro-3,5-dimethoxyphenyl)-7-(1,3-dimethyl-1H-pyrazol-4-yl)-1-(3-(1-methyl-1H-1,2,3-triazol-5-yl)phenyl)-3,4-dihydropyrido[4,3-d]pyrimidin-2(1H)-one], the FGFR1/FGFR3 was >5 and the FGFR4/FGFR3 is listed as >10.

For the compound `COc1cc(OC)c(F)c(N2Cc3cnc(-c4cn(C)nc4C)cc3N(C(C)C)C2=O)c1F` [Example 90, 3-(2,6-difluoro-3,5-dimethoxyphenyl)-7-(1,3-dimethyl-1H-pyrazol-4-yl)-1-isopropyl-3,4-dihydropyrido[4,3-d]pyrimidin-2(1H)-one], the FGFR1/FGFR3 is reported as >5 and the FGFR4/FGFR3 is listed as >5.

As to `COc1cc(OC)c(F)c(N2Cc3cnc(-c4cn(C)nc4C)cc3N(C3(C#N)CC3)C2=O)c1F` [Example 91, 1-(3-(2,6-difluoro-3,5-dimethoxyphenyl)-7-(1,3-dimethyl-1H-pyrazol-4-yl)-2-oxo-3,4-dihydropyrido[4,3-d]pyrimidin-1(2H)-yl)cyclopropanecarbonitrile], the FGFR1/FGFR3 is recorded as >5 and the FGFR4/FGFR3 was >5.

On to `COc1cc(OC)c(F)c(N2Cc3cnc(-c4cn(C)nc4C)cc3N(Cc3cc(C(C)C)on3)C2=O)c1F` [Example 93, 3-(2,6-difluoro-3,5-dimethoxyphenyl)-7-(1,3-dimethyl-1H-pyrazol-4-yl)-1-((5-isopropylisoxazol-3-yl)methyl)-3,4-dihydropyrido[4,3-d]pyrimidin-2(1H)-one], for which the FGFR1/FGFR3 was >5 and the FGFR4/FGFR3 was >5.

As to `COc1cc(OC)c(F)c(N2Cc3cnc(-c4cn(C)nc4C)cc3N(Cc3ccccn3)C2=O)c1F` [Example 94, 3-(2,6-difluoro-3,5-dimethoxyphenyl)-7-(1,3-dimethyl-1H-pyrazol-4-yl)-1-(pyridin-2-ylmethyl)-3,4-dihydropyrido[4,3-d]pyrimidin-2(1H)-one], the FGFR1/FGFR3 is given as >5 and the FGFR4/FGFR3 is >10.

(Values after patent publication US10251892B2, “Bicyclic heterocycles as FGFR4 inhibitors” (Incyte Corporation, priority 2015, dated 2019).)
